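Test compounds were applied to cells in 96-well plates for 48 hours at 5 doses. Definition used: TGI = concentration required for complete inhibition of growth.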
Legend:
Assay in all cases: NCI tumour cell line growth inhibition, 48 h
MCF7 breast = test system: MCF7 breast
HL-60(TB) leukemia = test system: HL-60(TB) leukemia
SW-620 colon = test system: SW-620 colon
U251 CNS = test system: U251 CNS
LOX IMVI melanoma = test system: LOX IMVI melanoma
MDA-N = test system: MDA-N
EKVX NSCLC = test system: EKVX NSCLC
SR leukemia = test system: SR leukemia
NCI-H23 lung = test system: NCI-H23 lung
COLO 205 colon = test system: COLO 205 colon
IGROV1 ovarian = test system: IGROV1 ovarian
MALME-3M melanoma = test system: MALME-3M melanoma
HS 578T breast = test system: HS 578T breast
SK-MEL-5 melanoma = test system: SK-MEL-5 melanoma
UACC-62 melanoma = test system: UACC-62 melanoma
T-47D breast = test system: T-47D breast
OVCAR-8 ovarian = test system: OVCAR-8 ovarian
HCT-116 colon = test system: HCT-116 colon
A549 NSCLC = test system: A549 NSCLC
PC-3 prostate = test system: PC-3 prostate
OVCAR-3 ovarian = test system: OVCAR-3 ovarian
UO-31 renal = test system: UO-31 renal
NCI-H460 lung = test system: NCI-H460 lung
RPMI-8226 leukemia = test system: RPMI-8226 leukemia
KM12 colon = test system: KM12 colon
ACHN renal = test system: ACHN renal
SF-268 CNS = test system: SF-268 CNS
MDA-MB-435 = test system: MDA-MB-435
CAKI-1 renal = test system: CAKI-1 renal
SK-MEL-28 melanoma = test system: SK-MEL-28 melanoma
HT29 colon = test system: HT29 colon
MOLT-4 leukemia = test system: MOLT-4 leukemia
SF-295 CNS = test system: SF-295 CNS
HCC-2998 colon = test system: HCC-2998 colon
SNB-75 CNS = test system: SNB-75 CNS
NCI-H522 lung = test system: NCI-H522 lung
NCI-H226 lung = test system: NCI-H226 lung
MDA-MB-231 breast = test system: MDA-MB-231 breast
SNB-19 CNS = test system: SNB-19 CNS
UACC-257 melanoma = test system: UACC-257 melanoma
TK-10 renal = test system: TK-10 renal
SF-539 CNS = test system: SF-539 CNS
CCRF-CEM leukemia = test system: CCRF-CEM leukemia
RXF 393 renal = test system: RXF 393 renal
OVCAR-5 ovarian = test system: OVCAR-5 ovarian
NCI/ADR-RES ovarian = test system: NCI/ADR-RES ovarian
K-562 leukemia = test system: K-562 leukemia
DU-145 prostate = test system: DU-145 prostate
BT-549 breast = test system: BT-549 breast
HCT-15 colon = test system: HCT-15 colon
SN12C renal = test system: SN12C renal
HOP-62 NSCLC = test system: HOP-62 NSCLC

Measured: TGI

Cc1cccc(C(O)c2ccccn2)c1O (configuration not stated)
> 100 µM: all assays above
